What was measured:
Format in all cases: in vivo
Kochia (Kochia scoparia) [1] = assay: Test A preemergence; details: Bassia scoparia, pre-emergence, 240 h, Preemergence; for pest or weed control at 31 g/ha: 31 g ai/ha, 0 to 100 scale where 0 is no effect and 100 is complete control, read-out: Kochia plant response rating; for pest or weed control at 125 g/ha: 125 g ai/ha, 0 to 100 scale (0 no effect, 100 complete control), read-out: Plant response rating, Kochia
Summary of the method: (§1)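 Ratings of 0 (no effect) to 100 (complete control) come from visual comparison with untreated controls roughly 10 d after treatment. Test chemicals, formulated in a non-phytotoxic solvent mixture with surfactant, were applied either as a preemergence directed soil spray on seeded soil or postemergence to one- to two-leaf plants 2 to 10 cm tall.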

[2] = system: barnyardgrass (Echinochloa crus-galli); assay: Test A preemergence; details: Echinochloa crus-galli, pre-emergence, 240 h, Preemergence; for pest or weed control at 31 g/ha: 31 g ai/ha, 0 to 100 scale where 0 is no effect and 100 is complete control, read-out: Barnyardgrass plant response rating; for pest or weed control at 125 g/ha: 125 g ai/ha, 0 to 100 scale (0 no effect, 100 complete control), read-out: Plant response rating, Barnyardgrass
Summary of the method: as §1

[3] = system: giant foxtail (Setaria faberii); assay: Test A preemergence; details: Setaria faberi, pre-emergence, 240 h, Preemergence; for pest or weed control at 31 g/ha: 31 g ai/ha, 0 to 100 scale where 0 is no effect and 100 is complete control, read-out: Foxtail, Giant plant response rating; for pest or weed control at 125 g/ha: 125 g ai/ha, 0 to 100 scale (0 no effect, 100 complete control), read-out: Plant response rating, Foxtail, Giant
Summary of the method: as §1

[4] = system: pigweed (Amaranthus retroflexus); assay: Test A preemergence; details: Amaranthus retroflexus, pre-emergence, 240 h, Preemergence; for pest or weed control at 31 g/ha: 31 g ai/ha, 0 to 100 scale where 0 is no effect and 100 is complete control, read-out: Pigweed plant response rating; for pest or weed control at 125 g/ha: 125 g ai/ha, 0 to 100 scale (0 no effect, 100 complete control), read-out: Plant response rating, Pigweed
[5] = system: ragweed (common ragweed, Ambrosia elatior); assay: Test A preemergence; details: Ambrosia artemisiifolia, pre-emergence, 240 h, Preemergence; for pest or weed control at 31 g/ha: 31 g ai/ha, 0 to 100 scale where 0 is no effect and 100 is complete control, read-out: Ragweed plant response rating; for pest or weed control at 125 g/ha: 125 g ai/ha, 0 to 100 scale (0 no effect, 100 complete control), read-out: Plant response rating, Ragweed
Summary of the method: as §1

[6] = system: ryegrass, Italian (Italian ryegrass, Lolium multiflorum); assay: Test A preemergence; details: Lolium multiflorum, pre-emergence, 240 h, Preemergence; for pest or weed control at 31 g/ha: 31 g ai/ha, 0 to 100 scale where 0 is no effect and 100 is complete control, read-out: Ryegrass, Italian plant response rating; for pest or weed control at 125 g/ha: 125 g ai/ha, 0 to 100 scale (0 no effect, 100 complete control), read-out: Plant response rating, Ryegrass, Italian
Summary of the method: as §1

Kochia (Kochia scoparia) [7] = assay: Test A postemergence; details: Bassia scoparia, post-emergence, 240 h, Postemergence, read-out: Kochia plant response rating (0 to 100 scale); for pest or weed control at 125 g/ha: 125 g ai/ha, visual rating about 10 d after treatment; for pest or weed control at 31 g/ha: 31 g ai/ha, 0 is no effect, 100 is complete control
Summary of the method: as §1

[8] = system: barnyardgrass (Echinochloa crus-galli); assay: Test A postemergence; details: Echinochloa crus-galli, post-emergence, 240 h, Postemergence; for pest or weed control at 125 g/ha: 125 g ai/ha, visual rating about 10 d after treatment, read-out: Barnyardgrass plant response rating (0 to 100 scale, 0 no effect, 100 complete control); for pest or weed control at 31 g/ha: 31 g ai/ha, 0 is no effect, 100 is complete control, read-out: Barnyardgrass plant response rating (0 to 100 scale)
Summary of the method: as §1

[9] = system: blackgrass (Alopecurus myosuroides); assay: Test A postemergence; details: Alopecurus myosuroides, post-emergence, 240 h, Postemergence, read-out: Blackgrass plant response rating (0 to 100 scale); for pest or weed control at 125 g/ha: 125 g ai/ha, visual rating about 10 d after treatment; for pest or weed control at 31 g/ha: 31 g ai/ha, 0 is no effect, 100 is complete control
Summary of the method: as §1

corn (Zea mays) = assay: Test A postemergence; details: Zea mays, post-emergence, 240 h, Postemergence, read-out: Corn plant response rating (0 to 100 scale); for plant injury at 125 g/ha: 125 g ai/ha, visual rating about 10 d after treatment; for plant injury at 31 g/ha: 31 g ai/ha, 0 is no effect, 100 is complete control
Summary of the method: as §1

[10] = system: giant foxtail (Setaria faberii); assay: Test A postemergence; details: Setaria faberi, post-emergence, 240 h, Postemergence, read-out: Foxtail, Giant plant response rating (0 to 100 scale); for pest or weed control at 125 g/ha: 125 g ai/ha, visual rating about 10 d after treatment; for pest or weed control at 31 g/ha: 31 g ai/ha, 0 is no effect, 100 is complete control
Summary of the method: as §1

[11] = system: pigweed (Amaranthus retroflexus); assay: Test A postemergence; details: Amaranthus retroflexus, post-emergence, 240 h, Postemergence, read-out: Pigweed plant response rating (0 to 100 scale); for pest or weed control at 125 g/ha: 125 g ai/ha, visual rating about 10 d after treatment; for pest or weed control at 31 g/ha: 31 g ai/ha, 0 is no effect, 100 is complete control
Summary of the method: as §1

[12] = system: ragweed (common ragweed, Ambrosia elatior); assay: Test A postemergence; details: Ambrosia artemisiifolia, post-emergence, 240 h, Postemergence, read-out: Ragweed plant response rating (0 to 100 scale); for pest or weed control at 125 g/ha: 125 g ai/ha, visual rating about 10 d after treatment; for pest or weed control at 31 g/ha: 31 g ai/ha, 0 is no effect, 100 is complete control
Summary of the method: as §1

[13] = system: ryegrass, Italian (Italian ryegrass, Lolium multiflorum); assay: Test A postemergence; details: Lolium multiflorum, post-emergence, 240 h, Postemergence, read-out: Ryegrass, Italian plant response rating (0 to 100 scale); for pest or weed control at 125 g/ha: 125 g ai/ha, visual rating about 10 d after treatment; for pest or weed control at 31 g/ha: 31 g ai/ha, 0 is no effect, 100 is complete control
Summary of the method: as §1

[14] = system: wheat (Triticum aestivum); assay: Test A postemergence; details: Triticum aestivum, post-emergence, 240 h, Postemergence, read-out: Wheat plant response rating (0 to 100 scale); for plant injury at 125 g/ha: 125 g ai/ha, visual rating about 10 d after treatment; for plant injury at 31 g/ha: 31 g ai/ha, 0 is no effect, 100 is complete control
Summary of the method: as §1

[15] = system: barnyardgrass (Echinochloa crus-galli); assay: Test B flooded paddy test; details: Echinochloa crus-galli, 360 h, Flood, 250 g ai/ha; visually evaluated after 13 to 15 d; read-out: Plant response rating, Barnyardgrass (0 to 100 scale where 0 is no effect and 100 is complete control)
Summary of the method: (§2)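 Visual ratings (0 none to 100 complete control) are relative to untreated plants, taken 13–15 d after treatment in a greenhouse. Test material went straight into floodwater standing 3 cm above the soil, kept constant, on plants at the 2-leaf stage.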

[16] = system: ducksalad (Heteranthera limosa); assay: Test B flooded paddy test; details: Heteranthera limosa, 360 h, Flood, 250 g ai/ha; visually evaluated after 13 to 15 d; read-out: Plant response rating, Ducksalad (0 to 100 scale where 0 is no effect and 100 is complete control)
Summary of the method: as §2

rice (Oryra sativa) = assay: Test B flooded paddy test; details: Oryza sativa, 360 h, Flood, 250 g ai/ha; visually evaluated after 13 to 15 d; read-out: Plant response rating, Rice (0 to 100 scale where 0 is no effect and 100 is complete control)
Summary of the method: as §2

[17] = system: sedge, umbrella (small-flower umbrella sedge, Cyperus difformis); assay: Test B flooded paddy test; details: Cyperus difformis, 360 h, Flood, 250 g ai/ha; visually evaluated after 13 to 15 d; read-out: Plant response rating, Sedge, Umbrella (0 to 100 scale where 0 is no effect and 100 is complete control)
Summary of the method: as §2

CN1C[C@H](c2ccc3c(c2)OC(F)(F)O3)[C@@H](C(=O)Nc2ccccc2C(F)(F)F)C1=O [Compound 1352]
100%: pest or weed control at 31 g/ha [3] | pest or weed control at 125 g/ha [3]
60%: pest or weed control at 125 g/ha (Kochia (Kochia scoparia) [1]) | pest or weed control at 125 g/ha [8] | pest or weed control at 31 g/ha [8] | pest or weed control at 31 g/ha [10] | pest or weed control at 250 g/ha [15]
0%: pest or weed control at 31 g/ha [4] | pest or weed control at 31 g/ha [5] | pest or weed control at 31 g/ha [6] | pest or weed control at 125 g/ha (Kochia (Kochia scoparia) [7]) | pest or weed control at 31 g/ha (Kochia (Kochia scoparia) [7]) | pest or weed control at 31 g/ha [9] | plant injury at 125 g/ha (corn (Zea mays)) | plant injury at 31 g/ha (corn (Zea mays)) | pest or weed control at 125 g/ha [11] | pest or weed control at 31 g/ha [11] | pest or weed control at 125 g/ha [12] | pest or weed control at 31 g/ha [12] | pest or weed control at 125 g/ha [13] | pest or weed control at 31 g/ha [13] | plant injury at 31 g/ha [14] | pest or weed control at 250 g/ha (rice (Oryra sativa)) | pest or weed control at 250 g/ha [17]
30%: pest or weed control at 125 g/ha [5] | pest or weed control at 125 g/ha [9]
20%: pest or weed control at 31 g/ha (Kochia (Kochia scoparia) [1]) | plant injury at 125 g/ha [14]
40%: pest or weed control at 125 g/ha [6]
70%: pest or weed control at 250 g/ha [16]
80%: pest or weed control at 31 g/ha [2] | pest or weed control at 125 g/ha [4] | pest or weed control at 125 g/ha [10]
90%: pest or weed control at 125 g/ha [2]

COc1ccc([C@H]2CN(C)C(=O)[C@@H]2C(=O)Nc2ccccc2F)cc1 [Compound 1342]
20%: pest or weed control at 125 g/ha [4] | pest or weed control at 125 g/ha (Kochia (Kochia scoparia) [7]) | pest or weed control at 31 g/ha [8] | pest or weed control at 31 g/ha [10]
60%: pest or weed control at 31 g/ha [2]
100%: pest or weed control at 125 g/ha [3]
0%: pest or weed control at 31 g/ha (Kochia (Kochia scoparia) [1]) | pest or weed control at 125 g/ha (Kochia (Kochia scoparia) [1]) | pest or weed control at 31 g/ha [4] | pest or weed control at 31 g/ha [5] | pest or weed control at 125 g/ha [5] | pest or weed control at 31 g/ha [6] | pest or weed control at 125 g/ha [6] | pest or weed control at 31 g/ha (Kochia (Kochia scoparia) [7]) | pest or weed control at 125 g/ha [9] | pest or weed control at 31 g/ha [9] | plant injury at 125 g/ha (corn (Zea mays)) | plant injury at 31 g/ha (corn (Zea mays)) | pest or weed control at 125 g/ha [11] | pest or weed control at 31 g/ha [11] | pest or weed control at 125 g/ha [12] | pest or weed control at 31 g/ha [12] | pest or weed control at 125 g/ha [13] | pest or weed control at 31 g/ha [13] | plant injury at 125 g/ha [14] | plant injury at 31 g/ha [14] | pest or weed control at 250 g/ha (rice (Oryra sativa)) | pest or weed control at 250 g/ha [17]
50%: pest or weed control at 250 g/ha [15]
90%: pest or weed control at 125 g/ha [2] | pest or weed control at 31 g/ha [3] | pest or weed control at 125 g/ha [8]
85%: pest or weed control at 250 g/ha [16]
70%: pest or weed control at 125 g/ha [10]

CN1C[C@H](c2ccc3c(c2)OC(F)(F)O3)[C@@H](C(=O)Nc2cccnc2F)C1=O [Compound 1346]
30%: pest or weed control at 125 g/ha [6] | pest or weed control at 125 g/ha (Kochia (Kochia scoparia) [7]) | pest or weed control at 31 g/ha [9] | plant injury at 31 g/ha [14]
0%: pest or weed control at 31 g/ha [5] | pest or weed control at 31 g/ha (Kochia (Kochia scoparia) [7]) | plant injury at 31 g/ha (corn (Zea mays)) | pest or weed control at 31 g/ha [11] | pest or weed control at 125 g/ha [12] | pest or weed control at 31 g/ha [12] | pest or weed control at 31 g/ha [13] | pest or weed control at 250 g/ha (rice (Oryra sativa)) | pest or weed control at 250 g/ha [17]
100%: pest or weed control at 125 g/ha [3]
20%: pest or weed control at 125 g/ha [9] | pest or weed control at 125 g/ha [11] | pest or weed control at 125 g/ha [13]
90%: pest or weed control at 125 g/ha [2] | pest or weed control at 31 g/ha [3] | pest or weed control at 125 g/ha [4] | pest or weed control at 125 g/ha [5] | pest or weed control at 125 g/ha [10] | pest or weed control at 250 g/ha [15] | pest or weed control at 250 g/ha [16]
40%: pest or weed control at 31 g/ha [2] | plant injury at 125 g/ha (corn (Zea mays))
80%: pest or weed control at 125 g/ha (Kochia (Kochia scoparia) [1]) | pest or weed control at 31 g/ha [4] | pest or weed control at 125 g/ha [8]
60%: pest or weed control at 31 g/ha [8] | pest or weed control at 31 g/ha [10] | plant injury at 125 g/ha [14]
10%: pest or weed control at 31 g/ha (Kochia (Kochia scoparia) [1]) | pest or weed control at 31 g/ha [6]
